Drawing on PubChem BioAssay (NCI), this text covers GI50 and TGI for 2 compounds.

Assay in all cases: NCI anticancer screen, dose series, 48 h
Assay [1] relates to DU-145 prostate.
In assay [2] the test system is HS 578T breast.
Assay [3] has as its system PC-3 prostate.
The subject of assay [4] is A498 renal.
Assay [5] relates to SK-MEL-28 melanoma.
The test system of assay [6] is OVCAR-4 ovarian.
The test system of assay [7] is TK-10 renal.
Assay [8] concerns HCC-2998 colon.
For assay [9], the system named is A549 NSCLC.
Assay [10] has as its system K-562 leukemia.

The structures appear in SMILES notation.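 Cells were grown in 96-well plates and exposed to each compound for 48 hours at five concentrations; endpoints were interpolated linearly between bracketing concentrations, or set to the highest concentration if not reached. GI50 marks 50% less growth. TGI denotes the concentration required for complete inhibition of growth.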

`Cn1cc(-c2ncnc3ccc(-c4cnc(Cl)c(NS(C)(=O)=O)c4)cc23)c2ccccc21`: the GI50 in assay [1] is 1050 nM; in [2], 140 nM; in [3], 361 nM; in assay [4], 207 nM; in [5] it was 306 nM; in assay [6] it was 921 nM. In addition, the GI50 in [7] is 505 nM; in assay [8], 812 nM; in assay [9] it was 814 nM; in assay [10], 2700 nM. The TGI in assay [1] was above 100000 nM; in [2], 1640 nM; in assay [3], 26100 nM; in assay [4] it was 1400 nM; in assay [5], 6890 nM; in [6], 6990 nM. Besides, the TGI in assay [7] was 10600 nM; in assay [8], 13300 nM; in assay [9] it was 9410 nM; in assay [10] it was above 100000 nM.
With `O=C1NN(C(=O)c2ccccc2)C(c2ccc(Cl)c(Cl)c2)=C/C1=C\c1ccccc1[N+](=O)[O-]`, the GI50 in assay [1] was 2780 nM; in assay [2] it was 2460 nM; in assay [3], 1520 nM; in assay [4], 2210 nM; in [5], 2720 nM; in assay [6], 2260 nM. Besides, the GI50 in assay [7] is 4260 nM; in assay [8] it was 1810 nM; in assay [9], 2110 nM; in [10], 1900 nM. Moreover, the TGI in assay [1] is above 6750 nM; in [2], above 6750 nM; in assay [3] it was above 6750 nM; in [4] it was 6210 nM; in assay [5], above 6750 nM; in assay [6], above 6750 nM. Further, the TGI in assay [7] was above 6750 nM; in assay [8], 5480 nM; in [9], above 6750 nM; in assay [10], above 6750 nM.
